Assay results: US12187713B2, “Immunomodulators, compositions and methods thereof” (Betta Pharmaceuticals Co., Ltd, priority 2019, dated 2025)

Molecular target: PD-1/PD-L1 (Homo sapiens (Human), UniProt Q9NZQ7)
Test: PD-1/PD-L1 Binding Assay (Alphascreen)
Conditions: numeric values
Procedure, shortened: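 PD-1/PD-L1 binding detected by anti-6×His acceptor and streptavidin donor beads after 120 min in the dark at 25 °C. Beforehand, the two proteins were incubated 15 min at 25 °C with inhibitor at 0.015–300 nM (1% DMSO). IC50 comes from a log concentration–response curve.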

Sequence of PD-1/PD-L1 (Q9NZQ7 19-238): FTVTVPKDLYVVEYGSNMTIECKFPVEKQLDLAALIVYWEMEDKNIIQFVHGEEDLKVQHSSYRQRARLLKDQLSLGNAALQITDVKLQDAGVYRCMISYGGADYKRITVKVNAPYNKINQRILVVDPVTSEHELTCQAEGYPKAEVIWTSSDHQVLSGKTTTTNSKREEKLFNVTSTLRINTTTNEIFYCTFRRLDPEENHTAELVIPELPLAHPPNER

Row | IC50 [nM] | SMILES
1 | 0.73 | Cc1c(-c2cnc(CN3CCCC3)c(F)c2)cccc1-c1cccc(-c2nc3cc(CN4CCC[C@H]4C(=O)O)c(OC(F)F)cc3o2)c1C [Example 265, ((6-(difluoromethoxy)-2-(3′-(5-fluoro-6-(pyrrolidin-1-ylmethyl)pyridin-3-yl)-2,2′-dimethyl-[1,1′-biphenyl]-3-yl)benzo[d]oxazol-5-yl)methyl)-L-proline]
2 | 1.3 | Cc1c(-c2cnc(CN3CCCC3)nc2)cccc1-c1cccc(-c2nc3cc(CN4CCC[C@H]4C(=O)O)c(OC(F)F)cc3o2)c1C [Example 281, ((6-(difluoromethoxy)-2-(2,2′-dimethyl-3′-(2-(pyrrolidin-1-ylmethyl)pyrimidin-5-yl)-[1,1′-biphenyl]-3-yl)benzo[d]oxazol-5-yl)methyl)-L-proline]
3 | 0.66 | Cc1c(-c2ccc3c(c2)CNC3)cccc1-c1cccc(-c2nc3cc(CN4CCC[C@H]4C(=O)O)c(OC(F)F)cc3o2)c1C [Example 289, ((6-(difluoromethoxy)-2-(3′-(isoindolin-5-yl)-2,2′-dimethyl-[1,1′-biphenyl]-3-yl)benzo[d]oxazol-5-yl)methyl)-L-proline]
4 | 12 | Cc1c(-c2nc3cc(CN4CCCC4)c(F)c(F)c3[nH]2)cccc1-c1cccc(-c2nc3cc(CN4CCC[C@H]4C(=O)O)c(OC(F)F)cc3o2)c1C [Example 296]
5 | 26 | Cc1c(-c2nc3cc(CN4CCCC4)c(F)cc3[nH]2)cccc1-c1cccc(-c2nc3cc(CN4CCC[C@H]4C(=O)O)c(OC(F)F)cc3o2)c1C [Example 297]

Same assay, conditions: range symbols

Row | IC50 [nM] | SMILES
6 | 5 to 50 | COc1nc(-c2cccc(-c3cccc(-c4nc5cc(CN6CCC[C@@H]6C(=O)O)c(OC(F)F)cc5o4)c3C)c2C)ccc1CN1CC[C@H](C)C1 [Example 273, ((6-(difluoromethoxy)-2-(3′-(6-methoxy-5-(((S)-3-methylpyrrolidin-1-yl)methyl)pyridin-2-yl)-2,2′-dimethyl-[1,1′-biphenyl]-3-yl)benzo[d]oxazol-5-yl)methyl)-D-proline]
7 | 0.1 to 5 | C=Cc1cc(-c2cccc(-c3cccc(-c4nc5cc(CN6CCC[C@H]6C(=O)O)c(OC(F)F)cc5o4)c3C)c2C)ncc1CN1CCCC1 [Example 274, ((6-(difluoromethoxy)-2-(2,2′-dimethyl-3′-(5-(pyrrolidin-1-ylmethyl)-4-vinylpyridin-2-yl)-[1,1′-biphenyl]-3-yl)benzo[d]oxazol-5-yl)methyl)-L-proline]
8 | 5 to 50 | COc1nc(-c2cccc(-c3cccc(-c4nc5cc(CN6CCC[C@H]6C(=O)O)c(OC(F)F)cc5o4)c3C)c2C)ccc1CN1CCC(C(F)F)C1 (stereo partly drawn) [Example 275, ((6-(difluoromethoxy)-2-(3′-(5-((3-(difluoromethyl)pyrrolidin-1-yl)methyl)-6-methoxypyridin-2-yl)-2,2′-dimethyl-[1,1′-biphenyl]-3-yl)benzo[d]oxazol-5-yl)methyl)-L-proline]
9 | 0.1 to 5 | Cc1c(-c2ccc3c(c2)CN(CC(=O)O)C3)cccc1-c1cccc(-c2nc3cc(CN4CCC[C@H]4C(=O)O)c(OC(F)F)cc3o2)c1C [Example 291, ((2-(3′-(2-(carboxymethyl)isoindolin-5-yl)-2,2′-dimethyl-[1,1′-biphenyl]-3-yl)-6-(difluoromethoxy)benzo[d]oxazol-5-yl)methyl)-L-proline]
10 | 5 to 50 | Cc1c(-c2ccc3c(c2)CN(C(C)C(=O)O)C3)cccc1-c1cccc(-c2nc3cc(CN4CCC[C@H]4C(=O)O)c(OC(F)F)cc3o2)c1C (stereo partly drawn) [Example 292, ((2-(3′-(2-(1-carboxyethyl)isoindolin-5-yl)-2,2′-dimethyl-[1,1′-biphenyl]-3-yl)-6-(difluoromethoxy)benzo[d]oxazol-5-yl)methyl)-L-proline]
11 | 5 to 50 | Cc1c(-c2nc3cc(CN4CCCC4)cc(C#N)c3[nH]2)cccc1-c1cccc(-c2nc3cc(CN4CCC[C@H]4C(=O)O)c(OC(F)F)cc3o2)c1C [Example 295, ((2-(3′-(7-cyano-5-(pyrrolidin-1-ylmethyl)-1H-benzo[d]imidazol-2-yl)-2,2′-dimethyl-[1,1′-biphenyl]-3-yl)-6-(difluoromethoxy)benzo[d]oxazol-5-yl)methyl)-L-proline]
12 | 5 to 50 | Cc1c(-c2nc3cc(CN4CCC[C@H]4C(=O)O)c(OC(F)F)cc3o2)cccc1-c1cccc(-c2nc3cc(CN4CCCC4)c(F)c(F)c3n2C)c1C [Example 298, ((2-(3′-(6,7-difluoro-1-methyl-5-(pyrrolidin-1-ylmethyl)-1H-benzo[d]imidazol-2-yl)-2,2′-dimethyl-[1,1′-biphenyl]-3-yl)-6-(difluoromethoxy)benzo[d]oxazol-5-yl)methyl)-L-proline]

Further lines, the compound ahead of its results:

Row | SMILES | IC50 [nM]
13 | Cc1c(-c2ccc(CN3CCCC3)c(=O)[nH]2)cccc1-c1cccc(-c2nc3cc(CN4CCC[C@H]4C(=O)O)c(OC(F)F)cc3o2)c1C [Example 267, ((6-(difluoromethoxy)-2-(2,2′-dimethyl-3′-(6-oxo-5-(pyrrolidin-1-ylmethyl)-1,6-dihydropyridin-2-yl)-[1,1′-biphenyl]-3-yl)benzo[d]oxazol-5-yl)methyl)-L-proline] | 5 to 50
14 | Cc1c(-c2nc3cc(CN4CCC[C@H]4C(=O)O)c(OC(F)F)cc3o2)cccc1-c1cccc(-c2cnc(CN3CCCC3)c(F)c2)c1C(F)F [Example 268, ((6-(difluoromethoxy)-2-(2′-(difluoromethyl)-3′-(5-fluoro-6-(pyrrolidin-1-ylmethyl)pyridin-3-yl)-2-methyl-[1,1′-biphenyl]-3-yl)benzo[d]oxazol-5-yl)methyl)-L-proline] | 0.1 to 5
15 | Cc1c(-c2nc3cc(CN4CCC[C@H]4C(=O)O)c(OC(F)F)cc3o2)cccc1-c1cccc(-c2cnc(CN3CCCC3)c(F)c2)c1CF [Example 269, ((6-(difluoromethoxy)-2-(3′-(5-fluoro-6-(pyrrolidin-1-ylmethyl)pyridin-3-yl)-2′-(fluoromethyl)-2-methyl-[1,1′-biphenyl]-3-yl)benzo[d]oxazol-5-yl)methyl)-L-proline] | 5 to 50
16 | Cc1c(-c2nc3cc(CN4CCC[C@H]4C(=O)O)c(OC(F)F)cc3o2)cccc1-c1cccc(-c2ccc(CN3CCCC3)nc2F)c1C [Example 270, ((6-(difluoromethoxy)-2-(3′-(2-fluoro-6-(pyrrolidin-1-ylmethyl)pyridin-3-yl)-2,2′-dimethyl-[1,1′-biphenyl]-3-yl)benzo[d]oxazol-5-yl)methyl)-L-proline] | 5 to 50
17 | COc1nc(-c2cccc(-c3cccc(-c4nc5cc(CN6CCC[C@H]6C(=O)O)c(OC(F)F)cc5o4)c3C)c2C)ccc1CN1CC(C)(C)C1 [Example 271, ((6-(difluoromethoxy)-2-(3′-(5-((3,3-dimethylazetidin-1-yl)methyl)-6-methoxypyridin-2-yl)-2,2′-dimethyl-[1,1′-biphenyl]-3-yl)benzo[d]oxazol-5-yl)methyl)-L-proline] | 0.1 to 5
18 | COc1nc(-c2cccc(-c3cccc(-c4nc5cc(CN6CCC[C@H]6C(=O)O)c(OC(F)F)cc5o4)c3C)c2C)ccc1CN1CCC[C@@H]1C [Example 277, ((6-(difluoromethoxy)-2-(3′-(6-methoxy-5-(((S)-2-methylpyrrolidin-1-yl)methyl)pyridin-2-yl)-2,2′-dimethyl-[1,1′-biphenyl]-3-yl)benzo[d]oxazol-5-yl)methyl)-L-proline] | 0.1 to 5
19 | COc1nc(-c2cccc(-c3cccc(-c4nc5cc(CN6CCC[C@H]6C(=O)O)c(OC(F)F)cc5o4)c3C)c2C)ccc1CN1C2CCC1CC2 [Example 278, ((2-(3′-(5-(((1s,4s)-7-azabicyclo[2.2.1]heptan-7-yl)methyl)-6-methoxypyridin-2-yl)-2,2′-dimethyl-[1,1′-biphenyl]-3-yl)-6-(difluoromethoxy)benzo[d]oxazol-5-yl)methyl)-L-proline] | 0.1 to 5
20 | COc1nc(-c2cccc(-c3cccc(-c4nc5cc(CN6CCC[C@H]6C(=O)O)c(OC(F)F)cc5o4)c3C)c2C)ccc1CN1CCC[C@H]1C [Example 279, ((6-(difluoromethoxy)-2-(3′-(6-methoxy-5-(((R)-2-methylpyrrolidin-1-yl)methyl)pyridin-2-yl)-2,2′-dimethyl-[1,1′-biphenyl]-3-yl)benzo[d]oxazol-5-yl)methyl)-L-proline] | 0.1 to 5
21 | Cc1c(-c2cnc(N3CCN(C)CC3)nc2)cccc1-c1cccc(-c2nc3cc(CN4CCC[C@H]4C(=O)O)c(OC(F)F)cc3o2)c1C [Example 282, ((6-(difluoromethoxy)-2-(2,2′-dimethyl-3′-(2-(4-methylpiperazin-1-yl)pyrimidin-5-yl)-[1,1′-biphenyl]-3-yl)benzo[d]oxazol-5-yl)methyl)-L-proline] | 5 to 50
22 | Cc1c(-c2cnc(CN3CCCC3)cn2)cccc1-c1cccc(-c2nc3cc(CN4CCC[C@H]4C(=O)O)c(OC(F)F)cc3o2)c1C [Example 284, ((6-(difluoromethoxy)-2-(2,2′-dimethyl-3′-(5-(pyrrolidin-1-ylmethyl)pyrazin-2-yl)-[1,1′-biphenyl]-3-yl)benzo[d]oxazol-5-yl)methyl)-L-proline] | 5 to 50
23 | COc1nc(-c2cccc(-c3cccc(-c4nc5cc(CN6CCC[C@H]6C(=O)O)c(OC(F)F)cc5o4)c3C)c2Cl)cnc1CNCC1CCC(=O)N1 (stereo partly drawn) [Example 287, ((2-(2′-chloro-3′-(6-methoxy-5-((((5-oxopyrrolidin-2-yl)methyl)amino)methyl)pyrazin-2-yl)-2-methyl-[1,1′-biphenyl]-3-yl)-6-(difluoromethoxy)benzo[d]oxazol-5-yl)methyl)-L-proline] | 0.1 to 5
24 | Cc1c(-c2ccc3c(c2)CN(CCC(=O)O)C3)cccc1-c1cccc(-c2nc3cc(CN4CCC[C@H]4C(=O)O)c(OC(F)F)cc3o2)c1C [Example 290, ((2-(3′-(2-(2-carboxyethyl)isoindolin-5-yl)-2,2′-dimethyl-[1,1′-biphenyl]-3-yl)-6-(difluoromethoxy)benzo[d]oxazol-5-yl)methyl)-L-proline] | 0.1 to 5
25 | Cc1c(-c2nc3cc(CN4CCC[C@H]4C(=O)O)c(OC(F)F)cc3o2)cccc1-c1cccc(-c2nc3c(F)c(F)c(CN4CCCC4)cc3n2CC(F)(F)F)c1C [Example 300, ((2-(3′-(4,5-difluoro-6-(pyrrolidin-1-ylmethyl)-1-(2,2,2-trifluoroethyl)-1H-benzo[d]imidazol-2-yl)-2,2′-dimethyl-[1,1′-biphenyl]-3-yl)-6-(difluoromethoxy)benzo[d]oxazol-5-yl)methyl)-L-proline] | > 50
